Experimental data from the kinase profiling compilation of Christmann-Franck et al. (2016).

Legend:
Test in all cases: radiometric filter-binding kinase assay, Kinase HotSpot
Conditions in all cases: compound 0.5 µM; ATP 10 µM
[1] = target: AKT2 (human) (UniProt P31751)
[2] = target: AURKB (human) (UniProt Q96GD4)
[3] = target: AXL (human) (UniProt P30530)
[4] = target: CAMK2G (human) (UniProt Q13555)
[5] = target: CDK7 CCNH MNAT1 (human) (UniProt P50613+P51948+P51946)
[6] = target: CSNK1G1 (human) (UniProt Q9HCP0)
[7] = target: DYRK3 (human) (UniProt O43781)
[8] = target: EPHA4 (human) (UniProt P54764)
[9] = target: EPHB1 (human) (UniProt P54762)
[10] = target: EPHB4 (human) (UniProt P54760)
[11] = target: ERBB4 (human) (UniProt Q15303)
[12] = target: HCK (human) (UniProt P08631)
[13] = target: HIPK2 (human) (UniProt Q9H2X6)
[14] = target: INSRR (human) (UniProt P14616)
[15] = target: ITK (human) (UniProt Q08881)
[16] = target: JAK2 JH1 JH2 (human) (UniProt O60674)
[17] = target: MAP2K2 (human) (UniProt P36507)
[18] = target: MAPK12 (human) (UniProt P53778)
[19] = target: MAPK3 (human) (UniProt P27361)
[20] = target: MAPKAPK3 (human) (UniProt Q16644)
[21] = target: MAPKAPK5 (human) (UniProt Q8IW41)
[22] = target: MERTK (human) (UniProt Q12866)
[23] = target: MLTK (human) (UniProt Q9NYL2)
[24] = target: NEK4 (human) (UniProt P51957)
[25] = target: NUAK1 (human) (UniProt O60285)
[26] = target: NUAK2 (human) (UniProt Q9H093)
[27] = target: PAK2 (human) (UniProt Q13177)
[28] = target: PASK (human) (UniProt Q96RG2)
[29] = target: PDGFRA (human) (UniProt P16234)
[30] = target: PDPK1 (human) (UniProt O15530)
[31] = target: PHKG2 (human) (UniProt P15735)
[32] = target: PKN1 (human) (UniProt Q16512)
[33] = target: PKN2 (human) (UniProt Q16513)
[34] = target: PRKACA (human) (UniProt P17612)
[35] = target: PRKCE (human) (UniProt Q02156)
[36] = target: PTK2 (human) (UniProt Q05397)
[37] = target: PTK2B (human) (UniProt Q14289)
[38] = target: SGK3 (human) (UniProt Q96BR1)
[39] = target: SRPK1 (human) (UniProt Q96SB4)
[40] = target: STK10 (human) (UniProt O94804)
[41] = target: WNK3 (human) (UniProt Q9BYP7)
WNK3 (human), sequence (Q9BYP7 whole entry, looked up): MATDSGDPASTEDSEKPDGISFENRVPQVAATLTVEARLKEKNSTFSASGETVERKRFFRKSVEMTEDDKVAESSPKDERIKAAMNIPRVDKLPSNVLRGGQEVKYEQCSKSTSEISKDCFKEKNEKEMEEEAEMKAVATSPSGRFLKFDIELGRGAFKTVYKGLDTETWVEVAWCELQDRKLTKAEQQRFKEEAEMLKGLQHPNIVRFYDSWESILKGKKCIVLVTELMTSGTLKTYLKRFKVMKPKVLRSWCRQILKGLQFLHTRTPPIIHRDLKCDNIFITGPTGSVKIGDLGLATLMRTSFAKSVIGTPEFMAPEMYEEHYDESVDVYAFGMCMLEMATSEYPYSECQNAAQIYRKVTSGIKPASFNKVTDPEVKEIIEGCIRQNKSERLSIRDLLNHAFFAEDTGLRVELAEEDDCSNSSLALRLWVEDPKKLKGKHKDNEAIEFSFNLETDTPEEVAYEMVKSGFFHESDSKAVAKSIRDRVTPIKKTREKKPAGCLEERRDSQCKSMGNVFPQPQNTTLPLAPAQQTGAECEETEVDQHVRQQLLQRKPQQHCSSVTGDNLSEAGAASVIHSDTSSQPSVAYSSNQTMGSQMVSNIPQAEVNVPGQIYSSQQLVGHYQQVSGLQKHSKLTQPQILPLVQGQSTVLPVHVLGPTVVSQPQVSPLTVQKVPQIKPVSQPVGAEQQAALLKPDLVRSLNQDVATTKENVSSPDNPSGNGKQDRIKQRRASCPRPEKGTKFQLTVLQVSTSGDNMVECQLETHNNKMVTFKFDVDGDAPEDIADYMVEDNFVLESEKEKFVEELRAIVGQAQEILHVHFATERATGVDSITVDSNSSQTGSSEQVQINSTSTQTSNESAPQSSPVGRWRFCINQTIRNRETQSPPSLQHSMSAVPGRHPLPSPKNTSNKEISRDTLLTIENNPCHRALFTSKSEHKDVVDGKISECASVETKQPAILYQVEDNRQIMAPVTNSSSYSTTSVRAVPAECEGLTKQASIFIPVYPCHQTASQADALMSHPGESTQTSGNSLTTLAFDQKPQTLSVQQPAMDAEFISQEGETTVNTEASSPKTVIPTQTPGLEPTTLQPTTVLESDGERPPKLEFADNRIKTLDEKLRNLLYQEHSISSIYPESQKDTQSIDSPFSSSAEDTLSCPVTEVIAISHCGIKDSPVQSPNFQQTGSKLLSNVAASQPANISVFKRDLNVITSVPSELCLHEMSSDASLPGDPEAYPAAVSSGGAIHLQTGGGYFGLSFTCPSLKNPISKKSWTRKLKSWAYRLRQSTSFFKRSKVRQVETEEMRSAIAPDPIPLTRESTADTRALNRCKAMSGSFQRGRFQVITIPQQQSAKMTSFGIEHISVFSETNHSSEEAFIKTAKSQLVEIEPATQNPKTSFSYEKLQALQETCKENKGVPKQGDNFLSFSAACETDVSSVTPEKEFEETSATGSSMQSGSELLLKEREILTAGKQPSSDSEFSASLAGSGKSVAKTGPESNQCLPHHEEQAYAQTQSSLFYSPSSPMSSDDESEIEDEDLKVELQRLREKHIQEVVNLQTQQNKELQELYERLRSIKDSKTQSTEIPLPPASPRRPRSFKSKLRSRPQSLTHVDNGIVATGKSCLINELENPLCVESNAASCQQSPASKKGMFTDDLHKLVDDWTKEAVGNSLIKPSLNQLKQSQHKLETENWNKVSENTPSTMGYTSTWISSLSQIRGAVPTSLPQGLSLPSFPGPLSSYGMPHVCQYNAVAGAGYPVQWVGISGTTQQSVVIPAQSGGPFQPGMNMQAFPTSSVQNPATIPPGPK

PKN2 (human), sequence (Q16513 whole entry, looked up): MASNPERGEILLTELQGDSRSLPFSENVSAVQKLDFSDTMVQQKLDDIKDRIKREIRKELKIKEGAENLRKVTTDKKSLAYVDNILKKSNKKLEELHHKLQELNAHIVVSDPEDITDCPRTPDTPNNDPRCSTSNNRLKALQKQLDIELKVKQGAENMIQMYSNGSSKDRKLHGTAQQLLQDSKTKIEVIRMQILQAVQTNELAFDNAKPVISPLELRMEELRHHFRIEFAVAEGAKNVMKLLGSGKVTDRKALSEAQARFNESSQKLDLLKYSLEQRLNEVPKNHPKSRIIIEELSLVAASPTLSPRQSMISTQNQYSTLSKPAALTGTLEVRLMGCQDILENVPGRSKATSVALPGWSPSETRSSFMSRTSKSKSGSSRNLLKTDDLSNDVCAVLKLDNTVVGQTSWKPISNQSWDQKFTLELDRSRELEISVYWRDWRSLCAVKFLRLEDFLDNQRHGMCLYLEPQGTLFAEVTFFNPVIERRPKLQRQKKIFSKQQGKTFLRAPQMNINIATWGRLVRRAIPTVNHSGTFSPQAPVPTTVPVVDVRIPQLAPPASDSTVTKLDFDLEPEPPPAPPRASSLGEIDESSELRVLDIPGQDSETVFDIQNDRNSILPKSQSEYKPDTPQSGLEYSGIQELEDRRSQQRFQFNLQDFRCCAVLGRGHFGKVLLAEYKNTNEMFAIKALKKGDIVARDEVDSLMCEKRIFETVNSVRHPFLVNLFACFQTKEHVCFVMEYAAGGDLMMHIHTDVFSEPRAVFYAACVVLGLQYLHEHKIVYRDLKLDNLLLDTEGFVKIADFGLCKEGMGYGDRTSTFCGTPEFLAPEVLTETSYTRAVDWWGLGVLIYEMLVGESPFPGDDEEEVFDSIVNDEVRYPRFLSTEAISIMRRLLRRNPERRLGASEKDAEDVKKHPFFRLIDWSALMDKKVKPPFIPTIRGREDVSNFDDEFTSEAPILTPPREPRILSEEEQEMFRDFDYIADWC
EPHB4 (human), sequence (P54760 whole entry, looked up): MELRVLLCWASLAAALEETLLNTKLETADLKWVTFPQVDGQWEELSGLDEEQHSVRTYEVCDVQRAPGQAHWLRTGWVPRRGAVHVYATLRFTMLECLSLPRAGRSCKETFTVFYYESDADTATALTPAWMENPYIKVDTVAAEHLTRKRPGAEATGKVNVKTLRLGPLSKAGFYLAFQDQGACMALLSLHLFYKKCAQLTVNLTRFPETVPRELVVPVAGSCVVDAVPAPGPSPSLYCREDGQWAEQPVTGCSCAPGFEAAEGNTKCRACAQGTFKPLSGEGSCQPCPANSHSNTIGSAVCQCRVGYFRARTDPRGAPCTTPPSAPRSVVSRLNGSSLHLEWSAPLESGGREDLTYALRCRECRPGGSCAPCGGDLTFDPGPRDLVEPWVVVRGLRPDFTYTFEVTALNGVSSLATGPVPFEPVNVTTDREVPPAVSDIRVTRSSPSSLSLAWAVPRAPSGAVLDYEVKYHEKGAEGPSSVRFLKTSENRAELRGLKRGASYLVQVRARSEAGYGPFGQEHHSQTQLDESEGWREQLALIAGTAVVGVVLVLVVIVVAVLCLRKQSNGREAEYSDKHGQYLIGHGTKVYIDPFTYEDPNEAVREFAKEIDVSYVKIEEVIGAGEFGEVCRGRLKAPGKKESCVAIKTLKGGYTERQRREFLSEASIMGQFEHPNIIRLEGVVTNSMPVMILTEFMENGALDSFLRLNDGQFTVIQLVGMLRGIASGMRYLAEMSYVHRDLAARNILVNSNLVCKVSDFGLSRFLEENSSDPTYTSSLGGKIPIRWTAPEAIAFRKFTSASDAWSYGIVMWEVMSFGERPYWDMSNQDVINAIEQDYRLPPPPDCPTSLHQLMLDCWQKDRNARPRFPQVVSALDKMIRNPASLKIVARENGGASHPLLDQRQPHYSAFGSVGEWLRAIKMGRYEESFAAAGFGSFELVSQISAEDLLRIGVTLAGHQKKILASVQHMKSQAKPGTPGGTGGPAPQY
HIPK2 (human), sequence (Q9H2X6 whole entry, looked up): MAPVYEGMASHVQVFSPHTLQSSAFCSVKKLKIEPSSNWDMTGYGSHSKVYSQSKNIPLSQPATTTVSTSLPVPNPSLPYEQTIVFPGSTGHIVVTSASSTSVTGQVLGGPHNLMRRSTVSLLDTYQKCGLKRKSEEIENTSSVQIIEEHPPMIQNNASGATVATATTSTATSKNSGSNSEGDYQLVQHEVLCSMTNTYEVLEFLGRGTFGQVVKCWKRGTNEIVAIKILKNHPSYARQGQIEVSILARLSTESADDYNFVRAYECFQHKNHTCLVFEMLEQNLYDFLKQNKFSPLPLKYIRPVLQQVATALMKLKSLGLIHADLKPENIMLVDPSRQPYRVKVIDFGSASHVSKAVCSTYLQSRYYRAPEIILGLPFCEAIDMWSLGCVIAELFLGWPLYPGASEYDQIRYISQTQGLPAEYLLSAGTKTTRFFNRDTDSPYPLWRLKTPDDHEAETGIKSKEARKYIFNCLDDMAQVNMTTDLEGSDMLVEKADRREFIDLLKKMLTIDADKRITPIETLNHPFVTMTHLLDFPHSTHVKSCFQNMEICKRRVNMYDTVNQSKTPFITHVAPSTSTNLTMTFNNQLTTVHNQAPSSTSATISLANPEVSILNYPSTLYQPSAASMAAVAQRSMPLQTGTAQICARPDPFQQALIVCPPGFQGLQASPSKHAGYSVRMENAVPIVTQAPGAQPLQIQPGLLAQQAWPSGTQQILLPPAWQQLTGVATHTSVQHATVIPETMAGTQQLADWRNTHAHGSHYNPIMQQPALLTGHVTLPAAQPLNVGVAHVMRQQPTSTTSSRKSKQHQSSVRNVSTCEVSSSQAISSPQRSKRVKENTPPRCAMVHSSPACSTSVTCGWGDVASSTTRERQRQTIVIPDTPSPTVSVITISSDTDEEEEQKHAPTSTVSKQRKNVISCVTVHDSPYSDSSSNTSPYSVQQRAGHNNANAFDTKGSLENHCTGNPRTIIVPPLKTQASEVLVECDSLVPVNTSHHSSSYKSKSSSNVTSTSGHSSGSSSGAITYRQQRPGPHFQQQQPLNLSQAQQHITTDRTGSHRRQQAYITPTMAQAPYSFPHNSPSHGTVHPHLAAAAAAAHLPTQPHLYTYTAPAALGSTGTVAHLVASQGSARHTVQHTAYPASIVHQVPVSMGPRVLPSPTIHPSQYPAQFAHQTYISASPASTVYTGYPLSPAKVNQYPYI

SMILES: Cc1ccc(Nc2nccc(N(C)c3ccc4c(C)n(C)nc4c3)n2)cc1S(N)(=O)=O
- residual activity [1]: 107%
- residual activity [2]: 64.6%
- residual activity [3]: 78.1%
- residual activity [4]: 106%
- residual activity [5]: 103%
- residual activity [6]: 100%
- residual activity [7]: 95.9%
- residual activity [8]: 94.5%
- residual activity [9]: 92.2%
- residual activity [10]: 93.8%
- residual activity [11]: 86.9%
- residual activity [12]: 64.8%
- residual activity [13]: 105%
- residual activity [14]: 96.1%
- residual activity [15]: 115%
- residual activity [16]: 101%
- residual activity [17]: 94.8%
- residual activity [18]: 93.7%
- residual activity [19]: 102%
- residual activity [20]: 98.5%
- residual activity [21]: 100%
- residual activity [22]: 57.2%
- residual activity [23]: 96.9%
- residual activity [24]: 91.1%
- residual activity [25]: 53.4%
- residual activity [26]: 93.8%
- residual activity [27]: 98.9%
- residual activity [28]: 101%
- residual activity [29]: 13.9%
- residual activity [30]: 93%
- residual activity [31]: 96.7%
- residual activity [32]: 102%
- residual activity [33]: 106%
- residual activity [34]: 94.5%
- residual activity [35]: 100%
- residual activity [36]: 76%
- residual activity [37]: 92%
- residual activity [38]: 97.5%
- residual activity [39]: 100%
- residual activity [40]: 50.1%
- residual activity [41]: 98.6%
